Reference: patent publication US20080009418A1, “Selective Inhibitors” (Alchemia LTD., priority 2004, published 2008)

Columns and labels:
Human opioid (ORL1) = molecular target: T1, Human opioid (ORL1) (Homo sapiens, UniProt P41146); test: Radioligand binding, human opioid ORL1 membranes, FlashPlate, [125I]-Nociceptin; conditions: compound at 10 μM; [125I]-Nociceptin
T1 construct: purchased Perkin Elmer Biosignal
Method in brief: (§1)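 Cloned human receptor membranes were coated onto FlashPlate wells and incubated with radioligand and compound (added from a 0.5 mM DMSO daughter plate) for 1 hour at room temperature in the dark. Scintillation counting gave percent inhibition, with DMSO defining total and reference ligand defining non-specific binding.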

Human neurokinin (NK1) = molecular target: T2, Human neurokinin (NK1) (Homo sapiens, UniProt P25103); test: Radioligand binding, human neurokinin NK1 membranes, filtration, [125I]-Substance P; conditions: compound at 10 μM; [125I]-Substance P
T2 construct: purchased Perkin Elmer Biosignal
T2 sequence (P25103 whole entry): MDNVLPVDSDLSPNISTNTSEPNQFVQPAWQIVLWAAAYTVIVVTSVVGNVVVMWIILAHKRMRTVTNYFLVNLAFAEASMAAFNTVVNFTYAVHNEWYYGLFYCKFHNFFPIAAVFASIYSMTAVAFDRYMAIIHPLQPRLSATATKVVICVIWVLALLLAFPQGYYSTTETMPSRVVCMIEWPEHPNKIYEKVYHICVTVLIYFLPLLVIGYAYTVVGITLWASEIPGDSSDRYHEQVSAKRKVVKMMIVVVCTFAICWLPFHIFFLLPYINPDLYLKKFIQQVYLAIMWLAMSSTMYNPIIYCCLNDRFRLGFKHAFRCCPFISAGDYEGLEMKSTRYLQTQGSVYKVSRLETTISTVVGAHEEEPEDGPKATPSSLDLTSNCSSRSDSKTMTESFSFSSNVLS
Method in brief: (§2)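 Membranes from cloned human receptors were incubated with compound and radioligand for 1 hour at room temperature. Bound ligand was collected on 0.3% PEI-soaked filters, washed with cold 50 mM Tris-HCl pH 7.4, and counted by scintillation. Percent inhibition was computed against DMSO totals and reference-ligand nonspecific wells.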

Human Melanocortin (MC3) = molecular target: T3, Human Melanocortin (MC3) (Homo sapiens, UniProt P41968); test: Radioligand binding, human melanocortin MC3 membranes, FlashPlate, [125I]-NDP-αMSH; conditions: compound at 10 μM; [125I]-NDP-αMSH
T3 construct: purchased Perkin Elmer Biosignal
T3 sequence (P41968 whole entry): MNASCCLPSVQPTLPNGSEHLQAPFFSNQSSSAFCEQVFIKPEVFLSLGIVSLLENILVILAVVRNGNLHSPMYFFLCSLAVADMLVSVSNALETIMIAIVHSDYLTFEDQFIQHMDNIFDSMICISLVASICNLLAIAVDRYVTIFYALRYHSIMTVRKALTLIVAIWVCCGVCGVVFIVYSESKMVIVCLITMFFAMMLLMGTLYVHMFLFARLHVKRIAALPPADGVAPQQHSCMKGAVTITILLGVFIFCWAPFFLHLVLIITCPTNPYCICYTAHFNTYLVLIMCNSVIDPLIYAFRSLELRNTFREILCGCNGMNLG
Method in brief: as §1

Mouse urotensin (mUR2) = molecular target: T4, Mouse urotensin (mUR2) (Mus musculus, UniProt Q8VIH9); test: Radioligand binding, mouse urotensin mUR2 membranes, FlashPlate, [125I]-Urotensin II; conditions: compound at 10 μM; [125I]-Urotensin II
T4 construct: purchased Perkin Elmer Biosignal
T4 sequence (Q8VIH9 1-385): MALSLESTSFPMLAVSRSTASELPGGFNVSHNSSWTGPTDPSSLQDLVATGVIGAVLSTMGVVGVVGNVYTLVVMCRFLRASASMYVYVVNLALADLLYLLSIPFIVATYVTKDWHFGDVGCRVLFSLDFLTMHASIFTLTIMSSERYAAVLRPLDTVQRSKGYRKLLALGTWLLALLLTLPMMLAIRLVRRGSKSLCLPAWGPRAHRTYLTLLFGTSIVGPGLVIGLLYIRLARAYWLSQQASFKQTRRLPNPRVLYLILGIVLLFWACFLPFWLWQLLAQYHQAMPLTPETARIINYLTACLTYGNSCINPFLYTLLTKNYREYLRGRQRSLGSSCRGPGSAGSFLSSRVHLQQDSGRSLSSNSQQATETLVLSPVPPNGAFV
Method in brief: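 Cloned mouse urotensin (mUR2) receptor membranes from Perkin Elmer Biosignal were immobilized in FlashPlate microplates using a proprietary coating. Each well got 19.5 μl buffer, then 0.5 μl of DMSO, reference ligand, or compound. Adding 5 μl of [125I]-Urotensin II, diluted to 5× final concentration in binding buffer, started binding. Plates were sealed with TopSeal-A and incubated 1 hour at room temperature in the dark. Wells were counted for 30 seconds each on a TopCount after a 60-second delay, and percentage inhibition was calculated.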

Human κ-Opioid (KOP) = molecular target: T5, Human κ-Opioid (KOP) (Homo sapiens, UniProt P41145); test: Radioligand binding, human κ-opioid (KOP) membranes, filtration, [3H]-Diprenorphine; conditions: compound at 10 μM; [3H]-Diprenorphine
T5 construct: purchased Perkin Elmer Biosignal
T5 sequence (P41145 whole entry): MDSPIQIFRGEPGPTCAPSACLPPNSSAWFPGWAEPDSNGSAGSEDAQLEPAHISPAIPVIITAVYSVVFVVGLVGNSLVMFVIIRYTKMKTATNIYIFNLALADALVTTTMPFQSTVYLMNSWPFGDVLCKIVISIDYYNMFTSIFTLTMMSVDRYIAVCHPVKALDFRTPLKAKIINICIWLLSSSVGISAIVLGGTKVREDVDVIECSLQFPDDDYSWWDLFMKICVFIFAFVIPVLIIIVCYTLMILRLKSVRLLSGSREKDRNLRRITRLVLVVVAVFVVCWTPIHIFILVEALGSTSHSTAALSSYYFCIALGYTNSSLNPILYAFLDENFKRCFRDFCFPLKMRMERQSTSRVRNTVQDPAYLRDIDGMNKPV
Method in brief: as §2

Human melanocortin (MC5) = molecular target: T6, Human melanocortin (MC5) (Homo sapiens, UniProt P33032); test: Radioligand binding, human melanocortin MC5 membranes, FlashPlate, [125I]-NDP-αMSH; conditions: compound at 10 μM; [125I]-NDP-αMSH
T6 construct: purchased Perkin Elmer Biosignal
T6 sequence (P33032 whole entry): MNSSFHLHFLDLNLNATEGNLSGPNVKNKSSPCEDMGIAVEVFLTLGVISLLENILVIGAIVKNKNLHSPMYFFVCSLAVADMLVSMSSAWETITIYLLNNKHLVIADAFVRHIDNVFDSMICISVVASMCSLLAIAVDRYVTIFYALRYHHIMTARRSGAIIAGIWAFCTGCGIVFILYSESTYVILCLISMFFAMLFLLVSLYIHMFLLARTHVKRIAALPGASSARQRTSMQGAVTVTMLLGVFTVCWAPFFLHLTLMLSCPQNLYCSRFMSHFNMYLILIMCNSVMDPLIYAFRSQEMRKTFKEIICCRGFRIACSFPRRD
Method in brief: as §1

[1] = molecular target: T7, Human melanin-concentrating hormone (MCH1) (Homo sapiens, UniProt Q99705); test: Radioligand binding, human melanin-concentrating hormone MCH1 membranes, FlashPlate, [125I]-S36057; conditions: compound at 10 μM; [125I]-S36057
T7 construct: purchased Perkin Elmer Biosignal
T7 sequence (Q99705 whole entry): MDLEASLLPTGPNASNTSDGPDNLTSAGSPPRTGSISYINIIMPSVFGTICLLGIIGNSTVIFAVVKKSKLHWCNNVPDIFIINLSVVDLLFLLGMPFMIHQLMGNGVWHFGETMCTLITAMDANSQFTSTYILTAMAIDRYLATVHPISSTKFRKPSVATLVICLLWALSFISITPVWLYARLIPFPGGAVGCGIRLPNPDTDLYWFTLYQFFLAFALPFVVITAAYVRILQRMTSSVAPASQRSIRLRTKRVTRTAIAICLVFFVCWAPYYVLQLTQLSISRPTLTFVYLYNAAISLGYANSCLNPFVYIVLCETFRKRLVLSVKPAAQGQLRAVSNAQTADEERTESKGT
Method in brief: as §1

[2] = molecular target: T8, Human neuropeptide Y (NPY-Y1) (Homo sapiens, UniProt P25929); test: Radioligand binding, human neuropeptide Y NPY-Y1 membranes, FlashPlate, [125I]-PYY; conditions: compound at 10 μM; [125I]-PYY
T8 construct: purchased Perkin Elmer Biosignal
T8 sequence (P25929 1-384): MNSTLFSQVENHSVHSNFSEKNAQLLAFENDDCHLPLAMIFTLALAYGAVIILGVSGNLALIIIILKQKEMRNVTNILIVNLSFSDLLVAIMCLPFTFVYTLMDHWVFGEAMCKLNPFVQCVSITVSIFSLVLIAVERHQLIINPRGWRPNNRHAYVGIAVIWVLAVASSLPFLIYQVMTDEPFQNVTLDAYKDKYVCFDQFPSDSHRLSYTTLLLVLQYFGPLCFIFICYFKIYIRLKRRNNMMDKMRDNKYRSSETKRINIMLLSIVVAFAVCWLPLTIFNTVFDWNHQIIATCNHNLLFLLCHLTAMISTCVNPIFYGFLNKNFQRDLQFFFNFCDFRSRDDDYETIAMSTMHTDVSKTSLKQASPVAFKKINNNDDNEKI
Method in brief: as §1

Human μ-opioid (MOP) = molecular target: T9, Human μ-opioid (MOP) (Homo sapiens, UniProt P35372); test: Radioligand binding, human μ-opioid (MOP) membranes, FlashPlate, [3H]-Naloxone; conditions: compound at 10 μM; [3H]-Naloxone
T9 construct: purchased Perkin Elmer Biosignal
T9 sequence (P35372 whole entry): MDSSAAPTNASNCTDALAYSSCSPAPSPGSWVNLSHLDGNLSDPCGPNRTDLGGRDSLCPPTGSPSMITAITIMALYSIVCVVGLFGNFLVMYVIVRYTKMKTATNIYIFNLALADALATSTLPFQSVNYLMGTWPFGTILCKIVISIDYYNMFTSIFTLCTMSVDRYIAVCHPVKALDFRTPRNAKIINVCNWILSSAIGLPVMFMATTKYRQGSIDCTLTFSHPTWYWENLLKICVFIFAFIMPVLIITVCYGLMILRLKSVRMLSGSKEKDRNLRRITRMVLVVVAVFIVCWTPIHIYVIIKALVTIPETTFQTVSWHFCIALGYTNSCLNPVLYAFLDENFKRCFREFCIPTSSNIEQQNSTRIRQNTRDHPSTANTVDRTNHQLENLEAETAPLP
Method in brief: as §1

Human δ-opioid (DOP) = molecular target: T10, Human δ-opioid (DOP) (Homo sapiens, UniProt P41143); test: Radioligand binding, human δ-opioid (DOP) membranes, FlashPlate, [3H]-Bremazocine; conditions: compound at 10 μM; [3H]-Bremazocine
T10 construct: purchased Perkin Elmer Biosignal
T10 sequence (P41143 whole entry): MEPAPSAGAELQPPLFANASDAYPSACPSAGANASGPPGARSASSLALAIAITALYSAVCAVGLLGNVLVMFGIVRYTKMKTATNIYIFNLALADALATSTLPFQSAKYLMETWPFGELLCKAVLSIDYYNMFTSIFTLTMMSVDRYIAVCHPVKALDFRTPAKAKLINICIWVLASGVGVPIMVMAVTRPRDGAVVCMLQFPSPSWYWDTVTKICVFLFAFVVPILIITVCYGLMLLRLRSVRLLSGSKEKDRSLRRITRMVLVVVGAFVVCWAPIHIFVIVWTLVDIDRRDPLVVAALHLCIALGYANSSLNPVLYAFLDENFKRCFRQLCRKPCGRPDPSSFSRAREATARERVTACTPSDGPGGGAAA
Method in brief: as §1

Human Melanocortin (MC4) = molecular target: T11, Human Melanocortin (MC4) (Homo sapiens, UniProt P32245); test: Radioligand binding, human melanocortin MC4 membranes, FlashPlate, [125I]-NDP-αMSH; conditions: compound at 10 μM; [125I]-NDP-αMSH
T11 construct: purchased Perkin Elmer Biosignal
T11 sequence (P32245 whole entry): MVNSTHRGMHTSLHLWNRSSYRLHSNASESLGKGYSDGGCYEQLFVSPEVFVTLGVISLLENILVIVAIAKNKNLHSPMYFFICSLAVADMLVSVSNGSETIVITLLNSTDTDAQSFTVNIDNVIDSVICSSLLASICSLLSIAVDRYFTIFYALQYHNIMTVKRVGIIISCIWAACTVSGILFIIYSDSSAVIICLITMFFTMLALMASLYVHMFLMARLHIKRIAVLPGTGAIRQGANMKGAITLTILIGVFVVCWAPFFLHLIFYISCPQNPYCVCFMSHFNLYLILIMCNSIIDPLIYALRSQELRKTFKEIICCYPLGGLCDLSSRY
Method in brief: as §1

T1 sequence (P41146 whole entry): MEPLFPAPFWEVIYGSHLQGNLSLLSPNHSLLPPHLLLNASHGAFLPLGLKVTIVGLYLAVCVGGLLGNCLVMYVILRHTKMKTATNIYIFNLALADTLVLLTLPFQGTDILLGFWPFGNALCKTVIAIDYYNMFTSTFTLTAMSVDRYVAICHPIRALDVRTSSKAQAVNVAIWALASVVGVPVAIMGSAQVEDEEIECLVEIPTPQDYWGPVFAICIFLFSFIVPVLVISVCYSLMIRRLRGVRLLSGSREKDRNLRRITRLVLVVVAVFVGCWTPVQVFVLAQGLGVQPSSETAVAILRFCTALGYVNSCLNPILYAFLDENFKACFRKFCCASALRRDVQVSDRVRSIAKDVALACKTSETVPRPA

Structure (SMILES): CSC1OC(COCc2ccccc2)C(O)C(OCc2ccc3ccccc3c2)C1NC(=O)CCCN (stereo not shown) [compound 304]
- A10: inhibition of radioligand binding, human opioid (ORL1) (Human opioid (ORL1)): − (“−” indicates less than 50% inhibition at 10 μM)
- A8: inhibition of radioligand binding, human neurokinin (NK1) (Human neurokinin (NK1)): + (“+” indicates greater than 50% inhibition at 10 μM)
- A3: inhibition of radioligand binding, human melanocortin (MC3) (Human Melanocortin (MC3)): − (“−” indicates less than 50% inhibition at 10 μM)
- A11: inhibition of radioligand binding, mouse urotensin (mUR2) (Mouse urotensin (mUR2)): − (“−” indicates less than 50% inhibition at 10 μM)
- A2: inhibition of radioligand binding, human κ-opioid (KOP) (Human κ-Opioid (KOP)): − (“−” indicates less than 50% inhibition at 10 μM)
- A5: inhibition of radioligand binding, human melanocortin (MC5) (Human melanocortin (MC5)): − (“−” indicates less than 50% inhibition at 10 μM)
- A6: inhibition of radioligand binding, human melanin-concentrating hormone (MCH1) [1]: − (“−” indicates less than 50% inhibition at 10 μM)
- A9: inhibition of radioligand binding, human neuropeptide Y (NPY-Y1) [2]: − (“−” indicates less than 50% inhibition at 10 μM)
- A7: inhibition of radioligand binding, human μ-opioid (MOP) (Human μ-opioid (MOP)): − (“−” indicates less than 50% inhibition at 10 μM)
- A1: inhibition of radioligand binding, human δ-opioid (DOP) (Human δ-opioid (DOP)): − (“−” indicates less than 50% inhibition at 10 μM)
- A4: inhibition of radioligand binding, human melanocortin (MC4) (Human Melanocortin (MC4)): − (“−” indicates less than 50% inhibition at 10 μM)

Structure (SMILES): CSC1OC(COCc2ccccc2)C(O)C(OCc2ccc3ccccc3c2)C1NC(=O)CCCNC(=N)N (stereo not shown) [compound 305]
- A10: inhibition of radioligand binding, human opioid (ORL1) (Human opioid (ORL1)): − (“−” indicates less than 50% inhibition at 10 μM)
- A8: inhibition of radioligand binding, human neurokinin (NK1) (Human neurokinin (NK1)): + (“+” indicates greater than 50% inhibition at 10 μM)
- A3: inhibition of radioligand binding, human melanocortin (MC3) (Human Melanocortin (MC3)): − (“−” indicates less than 50% inhibition at 10 μM)
- A11: inhibition of radioligand binding, mouse urotensin (mUR2) (Mouse urotensin (mUR2)): − (“−” indicates less than 50% inhibition at 10 μM)
- A2: inhibition of radioligand binding, human κ-opioid (KOP) (Human κ-Opioid (KOP)): − (“−” indicates less than 50% inhibition at 10 μM)
- A5: inhibition of radioligand binding, human melanocortin (MC5) (Human melanocortin (MC5)): + (“+” indicates greater than 50% inhibition at 10 μM)
- A6: inhibition of radioligand binding, human melanin-concentrating hormone (MCH1) [1]: − (“−” indicates less than 50% inhibition at 10 μM)
- A9: inhibition of radioligand binding, human neuropeptide Y (NPY-Y1) [2]: − (“−” indicates less than 50% inhibition at 10 μM)
- A7: inhibition of radioligand binding, human μ-opioid (MOP) (Human μ-opioid (MOP)): − (“−” indicates less than 50% inhibition at 10 μM)
- A1: inhibition of radioligand binding, human δ-opioid (DOP) (Human δ-opioid (DOP)): − (“−” indicates less than 50% inhibition at 10 μM)
- A4: inhibition of radioligand binding, human melanocortin (MC4) (Human Melanocortin (MC4)): − (“−” indicates less than 50% inhibition at 10 μM)

Structure (SMILES): CSC1OC(COCc2ccc(Cl)cc2)C(O)C(OCc2ccc3ccccc3c2)C1NC(=O)CN (stereo not shown) [compound 306]
- A10: inhibition of radioligand binding, human opioid (ORL1) (Human opioid (ORL1)): − (“−” indicates less than 50% inhibition at 10 μM)
- A8: inhibition of radioligand binding, human neurokinin (NK1) (Human neurokinin (NK1)): + (“+” indicates greater than 50% inhibition at 10 μM)
- A3: inhibition of radioligand binding, human melanocortin (MC3) (Human Melanocortin (MC3)): − (“−” indicates less than 50% inhibition at 10 μM)
- A11: inhibition of radioligand binding, mouse urotensin (mUR2) (Mouse urotensin (mUR2)): − (“−” indicates less than 50% inhibition at 10 μM)
- A2: inhibition of radioligand binding, human κ-opioid (KOP) (Human κ-Opioid (KOP)): − (“−” indicates less than 50% inhibition at 10 μM)
- A5: inhibition of radioligand binding, human melanocortin (MC5) (Human melanocortin (MC5)): − (“−” indicates less than 50% inhibition at 10 μM)
- A6: inhibition of radioligand binding, human melanin-concentrating hormone (MCH1) [1]: − (“−” indicates less than 50% inhibition at 10 μM)
- A9: inhibition of radioligand binding, human neuropeptide Y (NPY-Y1) [2]: − (“−” indicates less than 50% inhibition at 10 μM)
- A7: inhibition of radioligand binding, human μ-opioid (MOP) (Human μ-opioid (MOP)): − (“−” indicates less than 50% inhibition at 10 μM)
- A1: inhibition of radioligand binding, human δ-opioid (DOP) (Human δ-opioid (DOP)): − (“−” indicates less than 50% inhibition at 10 μM)
- A4: inhibition of radioligand binding, human melanocortin (MC4) (Human Melanocortin (MC4)): − (“−” indicates less than 50% inhibition at 10 μM)

Structure (SMILES): CSC1OC(COCc2ccc(Cl)cc2)C(O)C(OCc2ccc3ccccc3c2)C1NC(=O)CNC(=N)N (stereo not shown) [compound 307]
- A10: inhibition of radioligand binding, human opioid (ORL1) (Human opioid (ORL1)): − (“−” indicates less than 50% inhibition at 10 μM)
- A8: inhibition of radioligand binding, human neurokinin (NK1) (Human neurokinin (NK1)): + (“+” indicates greater than 50% inhibition at 10 μM)
- A3: inhibition of radioligand binding, human melanocortin (MC3) (Human Melanocortin (MC3)): + (“+” indicates greater than 50% inhibition at 10 μM)
- A11: inhibition of radioligand binding, mouse urotensin (mUR2) (Mouse urotensin (mUR2)): − (“−” indicates less than 50% inhibition at 10 μM)
- A2: inhibition of radioligand binding, human κ-opioid (KOP) (Human κ-Opioid (KOP)): − (“−” indicates less than 50% inhibition at 10 μM)
- A5: inhibition of radioligand binding, human melanocortin (MC5) (Human melanocortin (MC5)): + (“+” indicates greater than 50% inhibition at 10 μM)
- A6: inhibition of radioligand binding, human melanin-concentrating hormone (MCH1) [1]: − (“−” indicates less than 50% inhibition at 10 μM)
- A9: inhibition of radioligand binding, human neuropeptide Y (NPY-Y1) [2]: − (“−” indicates less than 50% inhibition at 10 μM)
- A7: inhibition of radioligand binding, human μ-opioid (MOP) (Human μ-opioid (MOP)): − (“−” indicates less than 50% inhibition at 10 μM)
- A1: inhibition of radioligand binding, human δ-opioid (DOP) (Human δ-opioid (DOP)): − (“−” indicates less than 50% inhibition at 10 μM)
- A4: inhibition of radioligand binding, human melanocortin (MC4) (Human Melanocortin (MC4)): + (“+” indicates greater than 50% inhibition at 10 μM)

Structure (SMILES): CSC1OC(COCc2ccc(Cl)cc2)C(O)C(OCc2ccc3ccccc3c2)C1NC(=O)CCN (stereo not shown) [compound 308]
- A10: inhibition of radioligand binding, human opioid (ORL1) (Human opioid (ORL1)): − (“−” indicates less than 50% inhibition at 10 μM)
- A8: inhibition of radioligand binding, human neurokinin (NK1) (Human neurokinin (NK1)): + (“+” indicates greater than 50% inhibition at 10 μM)
- A3: inhibition of radioligand binding, human melanocortin (MC3) (Human Melanocortin (MC3)): − (“−” indicates less than 50% inhibition at 10 μM)
- A11: inhibition of radioligand binding, mouse urotensin (mUR2) (Mouse urotensin (mUR2)): − (“−” indicates less than 50% inhibition at 10 μM)
- A2: inhibition of radioligand binding, human κ-opioid (KOP) (Human κ-Opioid (KOP)): − (“−” indicates less than 50% inhibition at 10 μM)
- A5: inhibition of radioligand binding, human melanocortin (MC5) (Human melanocortin (MC5)): − (“−” indicates less than 50% inhibition at 10 μM)
- A6: inhibition of radioligand binding, human melanin-concentrating hormone (MCH1) [1]: − (“−” indicates less than 50% inhibition at 10 μM)
- A9: inhibition of radioligand binding, human neuropeptide Y (NPY-Y1) [2]: − (“−” indicates less than 50% inhibition at 10 μM)
- A7: inhibition of radioligand binding, human μ-opioid (MOP) (Human μ-opioid (MOP)): − (“−” indicates less than 50% inhibition at 10 μM)
- A1: inhibition of radioligand binding, human δ-opioid (DOP) (Human δ-opioid (DOP)): − (“−” indicates less than 50% inhibition at 10 μM)
- A4: inhibition of radioligand binding, human melanocortin (MC4) (Human Melanocortin (MC4)): − (“−” indicates less than 50% inhibition at 10 μM)
